Measured values taken from publication PMC8643619 (Plant and Cell Physiology, 2021).

Key:
PcAAE2 = experiment: coupled NADH oxidation assay; type: biochemical, Pogostemon cablin; conditions: 10 mM MgCl2, pH 7.5, 30°C
PcAAE1 = experiment: coupled NADH oxidation assay; type: biochemical, Pogostemon cablin; conditions: 10 mM MgCl2, pH 7.5, 30°C

| Compound | Km (PcAAE2; 1 mM CoA, 5 mM ATP) [µM] | further results |
| --- | --- | --- |
| CC(C)CCC(=O)O [4-Methylvaleric acid] | 43.4 ± 5.1 | – |
| CC(C)CCCC(=O)O [5-Methylhexanoic acid] | 176 ± 20 | – |
| Nc1ncnc2c1ncn2[C@@H]1O[C@H](COP(=O)(O)OP(=O)(O)OP(=O)(O)O)[C@@H](O)[C@H]1O [ATP] | – | Km (PcAAE2; co-substrate 4-methylvaleric acid 1 mM, CoA 1 mM): 160 µM; Km (PcAAE1; co-substrate isovaleric acid 1 mM, CoA 1 mM): 89 µM |
| CC(C)(COP(=O)(O)OP(=O)(O)OC[C@H]1O[C@@H](n2cnc3c(N)ncnc32)[C@H](O)[C@@H]1OP(=O)(O)O)[C@@H](O)C(=O)NCCC(=O)NCCS [CoA] | – | Km (PcAAE2; co-substrate 4-methylvaleric acid 1 mM, 5 mM ATP): 40.2 µM; Km (PcAAE1; co-substrate isovaleric acid 1 mM, 5 mM ATP): 28.2 µM |
| CC(C)CC(=O)O [Isovaleric acid] | 217 ± 13.1 | Km (PcAAE1; 1 mM CoA, 5 mM ATP): 12.9 ± 0.8 µM |

Second part, led by results:

| Km (PcAAE2; 1 mM CoA, 5 mM ATP) [µM] | Compound | further results |
| --- | --- | --- |
| 570 ± 86.5 | CCCC(=O)O [Butyric acid] | Km (PcAAE1; 1 mM CoA, 5 mM ATP): 161 ± 5 µM |
| 84.5 ± 7.1 | CCCCCCC(=O)O [Heptanoic acid] | – |
| 41.5 ± 2.4 | CCCCCC(=O)O [Hexanoic acid] | – |
| 53.9 ± 2.7 | CCCCC(=O)O [Valeric acid] | – |
